Assay results as given in ChEMBL document CHEMBL4673247, “Mycophenolic anilides as broad specificity inosine-5'-monophosphate dehydrogenase (IMPDH) inhibitors” (Bioorg Med Chem Lett, 2020).

Target: T1, Inosine-5'-monophosphate dehydrogenase (Cryptosporidium parvum, UniProt Q8T6T2)
T1 sequence (Q8T6T2 whole entry): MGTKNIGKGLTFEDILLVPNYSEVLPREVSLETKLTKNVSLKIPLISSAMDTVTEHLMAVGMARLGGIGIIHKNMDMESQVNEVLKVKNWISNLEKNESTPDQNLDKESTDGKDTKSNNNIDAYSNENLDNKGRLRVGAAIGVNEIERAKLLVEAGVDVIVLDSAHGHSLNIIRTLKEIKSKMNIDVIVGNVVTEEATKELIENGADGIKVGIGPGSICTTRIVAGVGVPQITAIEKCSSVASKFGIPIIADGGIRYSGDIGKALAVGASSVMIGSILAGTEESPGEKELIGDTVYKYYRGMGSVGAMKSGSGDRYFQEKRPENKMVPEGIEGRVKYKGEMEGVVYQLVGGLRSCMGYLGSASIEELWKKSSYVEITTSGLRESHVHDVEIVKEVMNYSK
Assay: Inhibition of Cryptosporidium parvum IMPDH expressed in Escherichia coli assessed as apparent inhibition constant using NAD as substrate by fluorescence assay
Details: read-out: Ki(app)

Row | SMILES | Ki [nM]
1 | COc1c(C)c2c(c(O)c1C/C=C(\C)CCC(=O)Nc1ccc(Cl)cc1)C(=O)OC2 | 42
2 | COc1c(C)c2c(c(O)c1C/C=C(\C)CCC(=O)Nc1ccc(Cl)c(C(F)(F)F)c1)C(=O)OC2 | 16
3 | COc1cc(NC(=O)CC/C(C)=C/Cc2c(O)c3c(c(C)c2OC)COC3=O)ccc1Cl | 46
4 | COc1c(C)c2c(c(O)c1C/C=C(\C)CCC(=O)N(C)c1ccc(Cl)cc1)C(=O)OC2 | 870

Other lines, results leading:

Row | Ki [nM] | SMILES
5 | 41 | COc1c(C)c2c(c(O)c1C/C=C(\C)CCC(=O)Nc1ccc(Cl)c(Cl)c1)C(=O)OC2
6 | 60 | COc1c(C)c2c(c(O)c1CCC(C)CCC(=O)Nc1ccc(Cl)c(C(F)(F)F)c1)C(=O)OC2 (stereo not given)
7 | 1700 | COc1c(C)c2c(c(OC)c1C/C=C(\C)CCC(=O)Nc1ccc(Cl)c(C(F)(F)F)c1)C(=O)OC2
8 | 110 | COc1c(C)c2c(c(O)c1C/C=C(\C)CCC(=O)Nc1ccc(C#N)cc1)C(=O)OC2

Target: Inosine-5'-monophosphate dehydrogenase 2 (Homo sapiens, UniProt P12268)
Assay: Inhibition of human IMPDH2 expressed in Escherichia coli assessed as apparent inhibition constant using NAD as substrate by fluorescence assay
Details: read-out: Ki(app)

Row | SMILES | Ki [nM]
9 | COc1c(C)c2c(c(O)c1C/C=C(\C)CCC(=O)Nc1ccc(Cl)cc1)C(=O)OC2 | 130
10 | COc1c(C)c2c(c(O)c1C/C=C(\C)CCC(=O)Nc1ccc(Cl)c(C(F)(F)F)c1)C(=O)OC2 | 230
11 | COc1cc(NC(=O)CC/C(C)=C/Cc2c(O)c3c(c(C)c2OC)COC3=O)ccc1Cl | 350

Further lines, results first:

Row | Ki [nM] | SMILES
12 | 270 | COc1c(C)c2c(c(O)c1C/C=C(\C)CCC(=O)Nc1ccc(F)cc1)C(=O)OC2
13 | 340 | COc1c(C)c2c(c(O)c1C/C=C(\C)CCC(=O)Nc1ccc(Cl)c(Cl)c1)C(=O)OC2
14 | 400 | COc1c(C)c2c(c(O)c1C/C=C(\C)CCC(=O)Nc1ccc(C(F)(F)F)cc1)C(=O)OC2
15 | 350 | COc1c(C)c2c(c(O)c1C/C=C(\C)CCC(=O)Nc1ccc(C#N)cc1)C(=O)OC2
